Measured values from PubChem BioAssay AID2060512 (Molecular Pharmacology Branch, DTP, NCI, 2025).

Tested on: 186277-243-T-J2-PDC complex spheroid viability
Assay: Anticancer human tumor 186277-243-T-J2-PDC patient-derived colon adenocarcinoma cell line growth inhibition [GQUAD]
Conditions: for IC50: curve of first compound; for viability, T/C: stronger effect = lower value
Summary of the method: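 Viability of tumor cells grown as complex spheroids with endothelial and stromal cells, exposed to drug combinations. Top concentration at or near clinical Cmax (else 10 microM), diluted in half-log increments.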

[1] = second compound 0.0316 µM, first compound 0.0316 µM
[2] = second compound 0.0316 µM, first compound 0.1 µM
[3] = second compound 0.0316 µM, first compound 0.316 µM
[4] = second compound 0.0316 µM, first compound 1 µM
[5] = second compound 0.0316 µM, first compound 3.16 µM
[6] = second compound 0.0316 µM, first compound 10 µM
[7] = second compound 0.1 µM, first compound 0.0316 µM
[8] = second compound 0.1 µM, first compound 0.1 µM
[9] = second compound 0.1 µM, first compound 0.316 µM
[10] = second compound 0.1 µM, first compound 1 µM
[11] = second compound 0.1 µM, first compound 3.16 µM
[12] = second compound 0.1 µM, first compound 10 µM
[13] = second compound 0.316 µM, first compound 0.0316 µM
[14] = second compound 0.316 µM, first compound 0.1 µM
[15] = second compound 0.316 µM, first compound 0.316 µM
[16] = second compound 0.316 µM, first compound 1 µM
[17] = second compound 0.316 µM, first compound 3.16 µM
[18] = second compound 0.316 µM, first compound 10 µM
[19] = second compound 1 µM, first compound 0.0316 µM
[20] = second compound 1 µM, first compound 0.1 µM
[21] = second compound 1 µM, first compound 0.316 µM
[22] = second compound 1 µM, first compound 1 µM
[23] = second compound 1 µM, first compound 3.16 µM
[24] = second compound 1 µM, first compound 10 µM
[25] = second compound 3.16 µM, first compound 0.0316 µM
[26] = second compound 3.16 µM, first compound 0.1 µM
[27] = second compound 3.16 µM, first compound 0.316 µM
[28] = second compound 3.16 µM, first compound 1 µM
[29] = second compound 3.16 µM, first compound 3.16 µM
[30] = second compound 3.16 µM, first compound 10 µM
[31] = second compound 10 µM, first compound 0.0316 µM
[32] = second compound 10 µM, first compound 0.1 µM
[33] = second compound 10 µM, first compound 0.316 µM
[34] = second compound 10 µM, first compound 1 µM
[35] = second compound 10 µM, first compound 3.16 µM
[36] = second compound 10 µM, first compound 10 µM
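For viability, T/C in this document: 100% = DMSO vehicle control viability.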

## CC1COCCN1c1cc(C2(O)CC3CCC(C2)O3)c2cnn(-c3ccn[nH]3)c2n1 (stereo unspecified) + CN(C)c1ccc(Nc2c3ccc(NC(=O)CCN4CCCC4)cc3nc3cc(NC(=O)CCN4CCCC4)ccc23)cc1
Second compound 0.0316 µM
  IC50: 32.6 nM
Second compound 0.1 µM
  IC50: 33.1 nM
Second compound 0.316 µM
  IC50: 34.7 nM
Second compound 1 µM
  IC50: < 31.6 nM
Second compound 3.16 µM
  IC50: < 31.6 nM
Second compound 10 µM
  IC50: < 31.6 nM
[1]
  viability, T/C: 51.2%
[2]
  viability, T/C: 8.79%
[3]
  viability, T/C: 6.01%
[4]
  viability, T/C: 4%
[5]
  viability, T/C: 5.01%
[6]
  viability, T/C: 3.88%
[7]
  viability, T/C: 51.8%
[8]
  viability, T/C: 12%
[9]
  viability, T/C: 7.24%
[10]
  viability, T/C: 3.82%
[11]
  viability, T/C: 4.81%
[12]
  viability, T/C: 3.87%
[13]
  viability, T/C: 53.7%
[14]
  viability, T/C: 8.92%
[15]
  viability, T/C: 4.46%
[16]
  viability, T/C: 3.99%
[17]
  viability, T/C: 5.18%
[18]
  viability, T/C: 3.41%
[19]
  viability, T/C: 42.9%
[20]
  viability, T/C: 9.66%
[21]
  viability, T/C: 5.45%
[22]
  viability, T/C: 4.14%
[23]
  viability, T/C: 5.22%
[24]
  viability, T/C: 3.81%
[25]
  viability, T/C: 47%
[26]
  viability, T/C: 12.8%
[27]
  viability, T/C: 5.73%
[28]
  viability, T/C: 3.69%
[29]
  viability, T/C: 4.72%
[30]
  viability, T/C: 3.34%
[31]
  viability, T/C: 46.5%
[32]
  viability, T/C: 11.9%
[33]
  viability, T/C: 6.88%
[34]
  viability, T/C: 3%
[35]
  viability, T/C: 3.63%
[36]
  viability, T/C: 2.56%

## CC1COCCN1c1cc(C2(S(C)(=N)=O)CC2)nc(-c2ccnc3[nH]ccc23)n1 (stereo unspecified) + CN(C)c1ccc(Nc2c3ccc(NC(=O)CCN4CCCC4)cc3nc3cc(NC(=O)CCN4CCCC4)ccc23)cc1
Second compound 0.0316 µM
  IC50: 803 nM
Second compound 0.1 µM
  IC50: 749 nM
Second compound 0.316 µM
  IC50: 1350 nM
Second compound 1 µM
  IC50: 972 nM
Second compound 3.16 µM
  IC50: 986 nM
Second compound 10 µM
  IC50: 840 nM
[1]
  viability, T/C: 95.5%
[2]
  viability, T/C: 100%
[3]
  viability, T/C: 117%
[4]
  viability, T/C: 37.2%
[5]
  viability, T/C: 8.85%
[6]
  viability, T/C: 6.06%
[7]
  viability, T/C: 105%
[8]
  viability, T/C: 102%
[9]
  viability, T/C: 89.4%
[10]
  viability, T/C: 37%
[11]
  viability, T/C: 7.6%
[12]
  viability, T/C: 5.85%
[13]
  viability, T/C: 85.2%
[14]
  viability, T/C: 99.5%
[15]
  viability, T/C: 92.7%
[16]
  viability, T/C: 65.2%
[17]
  viability, T/C: 7.48%
[18]
  viability, T/C: 5.05%
[19]
  viability, T/C: 91%
[20]
  viability, T/C: 89.8%
[21]
  viability, T/C: 96.2%
[22]
  viability, T/C: 48.9%
[23]
  viability, T/C: 8.32%
[24]
  viability, T/C: 5.51%
[25]
  viability, T/C: 91%
[26]
  viability, T/C: 103%
[27]
  viability, T/C: 98.8%
[28]
  viability, T/C: 49.4%
[29]
  viability, T/C: 7.66%
[30]
  viability, T/C: 5.17%
[31]
  viability, T/C: 85.3%
[32]
  viability, T/C: 94%
[33]
  viability, T/C: 110%
[34]
  viability, T/C: 41.7%
[35]
  viability, T/C: 9.87%
[36]
  viability, T/C: 5.6%

## COc1ccc([C@@H](O)c2cc(-c3ncnc4cc(N5CCOCC5)ccc34)c(F)cc2Cl)nn1 + CN(C)c1ccc(Nc2c3ccc(NC(=O)CCN4CCCC4)cc3nc3cc(NC(=O)CCN4CCCC4)ccc23)cc1
Second compound 0.0316 µM
  IC50: 3940 nM
Second compound 0.1 µM
  IC50: 5030 nM
Second compound 0.316 µM
  IC50: 4100 nM
Second compound 1 µM
  IC50: 4450 nM
Second compound 3.16 µM
  IC50: 4330 nM
Second compound 10 µM
  IC50: 2310 nM
[1]
  viability, T/C: 102%
[2]
  viability, T/C: 102%
[3]
  viability, T/C: 117%
[4]
  viability, T/C: 75.9%
[5]
  viability, T/C: 59.8%
[6]
  viability, T/C: 26.2%
[7]
  viability, T/C: 112%
[8]
  viability, T/C: 96%
[9]
  viability, T/C: 90.1%
[10]
  viability, T/C: 85.2%
[11]
  viability, T/C: 73.3%
[12]
  viability, T/C: 22.5%
[13]
  viability, T/C: 95%
[14]
  viability, T/C: 92.7%
[15]
  viability, T/C: 104%
[16]
  viability, T/C: 82.3%
[17]
  viability, T/C: 57.8%
[18]
  viability, T/C: 26.3%
[19]
  viability, T/C: 86.5%
[20]
  viability, T/C: 93.2%
[21]
  viability, T/C: 89.2%
[22]
  viability, T/C: 110%
[23]
  viability, T/C: 62.8%
[24]
  viability, T/C: 19.9%
[25]
  viability, T/C: 98.3%
[26]
  viability, T/C: 87.5%
[27]
  viability, T/C: 108%
[28]
  viability, T/C: 96.4%
[29]
  viability, T/C: 61.1%
[30]
  viability, T/C: 20.4%
[31]
  viability, T/C: 91.3%
[32]
  viability, T/C: 88.1%
[33]
  viability, T/C: 111%
[34]
  viability, T/C: 81.1%
[35]
  viability, T/C: 37.9%
[36]
  viability, T/C: 7.76%
